{"source": "patent US20050256056A1", "about": "“Peptide inhibitors of HIV” (priority 2003, published 2005)", "key": {"HIV-1 NL4-3": {"test_system": "HIV-1 NL4-3", "assay": "focal infectivity assay, inhibition of HIV-1 NL4-3 in HeLa H1-JC.37 cells", "type": "cell-based", "description": "The term “EC50” refers to the concentration of peptide that inhibits 50% viral activity, including infective activity, as measured in an in vitro assay, including a focal infectivity assay (described in Pincus, et al. Biotechniques 10:336 (1991)).\nPeptides and peptide analogs that bind to an HIV target protein of interest are then screened for their effectiveness in inhibiting HIV activity in vitro. One assay for evaluating HIV inhibiting activity in vitro is a focal infectivity assay, described by Pincus, et al. Biotechniques 10:336 (1991). Preferred peptides and peptide analogs will inhibit HIV activity in vitro at a concentration of about 50 μM or less, more preferably at about 40 μM, 30 μM, 25 μM or 20 μM or less, and more preferably at about 15 μM, 10 μM or 5 μM or less.\nAfter re-synthesis of 16 of these as soluble peptides, 13 were tested for ability to inhibit the NL4-3 clone of HIV-1 (the other 3 were insoluble). For these studies a focal infectivity assay was carried out using HeLa H1-JC.37 cells. H1-JC.37 cells are HeLa cells that naturally express the CXCR4 receptor and that have been engineered to express CD4 and CCR5 receptors (Platt, et al. J. Virol. 72:2855 (1998)). Dose-response curves were performed in triplicate experiments with 6 determinations per drug concentration in each experiment. None of these peptides inhibited growth of HeLa H1-JC.37 cells at the concentrations tested (up to 100 μM). […] The purified peak fraction was re-tested for anti-HIV activity, and the EC50 was determined to be 8 μM. The identity of the biologically active peptide has been confirmed with mass spectrometry."}, "ogp140": {"target": "T1, ogp140 (Human immunodeficiency virus type 1 group M subtype B, UniProt P19550)", "T1 construct": "ogp140, which contains gp120 and the ectodomain of the gp41 subunit in a trimeric form; purchased Chiron Corporation (gift from Dr. Indresh Srivastava, not a purchase)", "T1 sequence (P19550 32-675)": "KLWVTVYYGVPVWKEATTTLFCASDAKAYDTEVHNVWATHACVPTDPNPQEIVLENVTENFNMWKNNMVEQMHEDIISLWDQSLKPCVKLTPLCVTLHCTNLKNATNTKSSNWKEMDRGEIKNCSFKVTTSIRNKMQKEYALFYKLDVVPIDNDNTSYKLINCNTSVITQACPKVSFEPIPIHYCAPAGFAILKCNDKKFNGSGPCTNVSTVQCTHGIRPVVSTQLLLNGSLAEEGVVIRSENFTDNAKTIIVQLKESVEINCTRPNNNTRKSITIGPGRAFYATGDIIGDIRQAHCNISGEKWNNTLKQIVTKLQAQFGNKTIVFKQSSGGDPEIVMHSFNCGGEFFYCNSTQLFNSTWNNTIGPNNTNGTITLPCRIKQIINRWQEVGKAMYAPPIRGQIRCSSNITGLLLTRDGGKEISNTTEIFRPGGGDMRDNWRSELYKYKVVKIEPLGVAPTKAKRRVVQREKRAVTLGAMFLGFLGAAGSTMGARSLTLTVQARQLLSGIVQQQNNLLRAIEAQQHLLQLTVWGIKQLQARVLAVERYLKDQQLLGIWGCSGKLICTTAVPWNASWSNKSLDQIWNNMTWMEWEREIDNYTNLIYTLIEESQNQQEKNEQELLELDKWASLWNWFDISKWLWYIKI", "type": "binding, HIV-1 SF162 strain", "conditions": "Table 2 peptides re-synthesized on beads", "quoted_text": "The optimal concentrations of glycoproteins for our screening assays were determined to be 0.25-1.25 μg/ml for ogp140 and 1-5 μg/ml for gp120. In order to visualize beads with bound ogp140 or gp120, these proteins were biotinylated so that an enzyme-linked colorimetric assay could be used to identify positive beads. Biotinylation was performed with Sulpho-NHS-biotin at a 5:1 molar ratio of biotin to protein. Reactions were carried out for both 3 minutes and 10 minutes to obtain different levels of biotinylation and were stopped with 2 M Tris-HCl, pH 7.4. The proteins were dialyzed for 4-5 hr to remove excess biotin.\nThe peptides of Table 2 were re-synthesized on beads.\nThese secondary libraries were screened with ogp140 under higher stringency (lower protein concentrations of both ogp140 and streptavidin-alkaline phosphatase (ST-AP)). The concentrations of ogp140 used in this screen were 0.06 mg/mL and 0.3 mg/mL. These concentrations are 4-fold lower than those used in the original screen (0.25 mg/mL and 1.25 mg/mL). The amount of ST-AP was lowered from 1:15,000 in the original screen to 1:25,000 in this screen. Approximately 75,000 beads from each library were screened.\nFrom the 34 positive beads of the 8-mer library, the 12 darkest beads were selected for sequence analyses and the results are in Table 3."}}, "note": "Read-outs that look alike come from different tables or passages of the source. Non-standard residues stand in square brackets, D forms with d. Residues, ends and D or L forms follow the SMILES beside them.", "data": [{"smiles": "CC[C@@H](C)[C@@H](NC(=O)[C@@H](Cc1c[nH]c2ccccc12)NC(=O)[C@@H]1CCCN1C(=O)[C@@H](Cc1ccc(O)cc1)NC(=O)[C@@H](CO)NC(=O)[C@H]1CCCN1C(=O)[C@H](N)CCSC)C(=O)N[C@H](CCCNC(=N)N)C(=O)O", "note": "[compound 16, mpsyPwir] (H-[dM][dP][dS][dY]P[dW][dI][dR]-OH; N-terminus and C-terminus assumed)", "values": [{"measurement": "EC50", "setting": "HIV-1 NL4-3; HPLC-purified peak fraction re-tested, read-out: EC50 of purified peak fraction, anti-HIV activity", "value": 8, "unit": "µM"}, {"measurement": "EC50", "setting": "HIV-1 NL4-3; NL4-3", "value": 17, "unit": "µM"}, {"measurement": "staining intensity of peptide beads in binding assays with ogp140", "setting": "ogp140", "value": "stain more intensively"}]}, {"smiles": "CSCC[C@@H](NC(=O)[C@H](N)Cc1c[nH]cn1)C(=O)N[C@H](CC(N)=O)C(=O)N1CCC[C@H]1C(=O)N[C@H](Cc1ccccc1)C(=O)N[C@H](Cc1ccc(O)cc1)C(=O)N[C@H](Cc1ccc(O)cc1)C(=O)N[C@H](CCC(N)=O)C(=O)O", "note": "[compound 13] (H-[dH][dM][dN]P[dF][dY][dY][dQ]-OH; N-terminus and C-terminus assumed)", "values": [{"measurement": "EC50", "setting": "HIV-1 NL4-3; NL4-3", "value": "> 100", "unit": "µM"}]}, {"smiles": "CC[C@@H](C)[C@@H](NC(=O)[C@@H](Cc1c[nH]c2ccccc12)NC(=O)[C@@H]1CCCN1C(=O)[C@@H](Cc1ccc(O)cc1)NC(=O)[C@@H](CO)NC(=O)[C@H]1CCCN1C(=O)[C@@H](C)N)C(=O)N[C@H](CCCNC(=N)N)C(=O)O", "note": "[compound 1] (H-[dA][dP][dS][dY]P[dW][dI][dR]-OH; N-terminus and C-terminus assumed)", "values": [{"measurement": "EC50", "setting": "HIV-1 NL4-3; NL4-3", "value": "> 100", "unit": "µM"}]}, {"smiles": "CC(C)[C@@H](NC(=O)[C@@H](Cc1c[nH]cn1)NC(=O)[C@@H](CC(=O)O)NC(=O)[C@@H](Cc1ccccc1)NC(=O)[C@@H]1CCCN1C(=O)[C@@H](CCC(N)=O)NC(=O)[C@@H](Cc1ccc(O)cc1)NC(=O)[C@H](N)Cc1ccc(O)cc1)C(=O)O", "note": "[compound 14] (H-[dY][dY][dQ]P[dF][dD][dH][dV]-OH; N-terminus and C-terminus assumed)", "values": [{"measurement": "EC50", "setting": "HIV-1 NL4-3; NL4-3", "value": 55, "unit": "µM"}]}]}
